{"source": "patent US20250236596A1", "about": "“HYDROXYLAMINE-BASED EGFR INHIBITORS FOR TREATMENT OF CANCER WITH BRAIN METASTASES” (University of Georgia Research Foundation, Inc., priority 2022, published 2025)", "key": {"[1]": {"assay": "Metabolic stability in hepatocytes", "format": "in vitro ADME", "conditions": "human and rat; result in words", "experimental": "Assessment of the compounds metabolic stability in incubations containing liver microsomes and hepatocytes of human and rat using the compound depletion approach was performed by Pharmaron Inc. Compound 15 underwent additional stability evaluation in monkey and dog hepatocytes. Microsome stability was assessed in duplicate (n=2) in the presence and absence of NADPH with liver microsomes (0.5 mg/mL) from human (BD Gentest) and SD rat (BD Gentest). Compounds were incubated in liver microsomes at 1 μM and samples (30 μL) were taken at 0.5, 15, 30, 45 and 60 min time points for analysis by LC-MS/MS. Hepatocyte stability was assessed in duplicate (n=2) at a working cell density of 0.5×10^6 cells/mL with hepatocytes from human (BioIVT), SD rat (BioIVT), cynomolgous monkey (RILD) or beagle dog (BioIVT). Compounds were incubated in hepatocytes at 1 μM and samples (25 μL) were taken at 0.5, 15, 30, 60, 90 and 120 min time points for analysis by LC-MS/MS. The in vitro half-life and intrinsic clearances were determined as previously described.^19\nIn vitro half-life (in vitro t1/2) was determined from the slope value in: in vitro t1/2=−(0.693/k).\nWhere, k, was determined by linear regression of the natural logarithm of the remaining percentage of the parent drug vs incubation time curve."}, "CYP3A4": {"molecular_target": "CYP3A4 (Homo sapiens, UniProt P08684)", "sequence (P08684 whole entry, canonical isoform)": "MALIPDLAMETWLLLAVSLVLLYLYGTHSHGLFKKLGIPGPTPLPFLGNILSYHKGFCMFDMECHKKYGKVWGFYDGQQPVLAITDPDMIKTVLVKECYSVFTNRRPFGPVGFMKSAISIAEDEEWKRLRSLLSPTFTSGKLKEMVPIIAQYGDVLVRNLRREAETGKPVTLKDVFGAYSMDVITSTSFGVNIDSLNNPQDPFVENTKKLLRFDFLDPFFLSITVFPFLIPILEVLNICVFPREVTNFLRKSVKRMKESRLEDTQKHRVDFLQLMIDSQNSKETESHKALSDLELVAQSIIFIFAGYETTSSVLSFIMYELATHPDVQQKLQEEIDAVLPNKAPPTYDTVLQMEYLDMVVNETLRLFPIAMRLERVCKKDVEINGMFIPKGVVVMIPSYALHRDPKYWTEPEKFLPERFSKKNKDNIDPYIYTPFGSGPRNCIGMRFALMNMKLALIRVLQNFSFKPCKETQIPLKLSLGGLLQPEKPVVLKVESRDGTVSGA", "assay": "Human CYP450 inhibition in human liver microsomes, CYP3A4", "format": "in vitro ADME", "conditions": "pooled human liver microsomes, probe midazolam (1 μM), 1′-hydroxylation", "experimental": "Assessment of compound 15 was carried out at Pharmaron Inc. for its potential to inhibit cytochrome P450 (CYP) isoforms using human liver microsomes. The activities tested were CYP1A2-mediated phenacetin O-demethylation, CYP2C19-mediated (S)-mephenytoin 4′-hydroxylation, CYP2C9-mediated diclofenac 4′-hydroxylation, CYP2D6-mediated dextromethorphan O-demethylation and CYP3A4-mediated midazolam 1′-hydroxylation. Concentrations of substrates were phenacetin (40 μM), mephenytoin (50 μM), diclofenac (6 μM), dextromethorphan (2 μM) and midazolam (1 μM). Probe substrates phenacetin, mephenytoin and dextromethorphan were incubated at 37° for 20 min. Probe substrates diclofenac and midazolam were incubated at 37° for 5 min. […] The reactions were initiated by adding NADPH (1 mM final concentration) after a 5 min-preincubation and the assay was ran in duplicate (n=2). Samples were analyzed by UPLC-MS/MS."}, "[2]": {"assay": "Pharmacokinetics in SD rats (IV and PO)", "format": "in vivo", "conditions": "SD rats at the tested doses", "experimental": "Animal experiments were performed at Pharmaron Inc. and animal use was approved by Pharmaron's Institutional Animal Care and Use Committee (IACUC) in Pharmaron (Pharmaron IACUC, Protocol #PK-M-07182022, #PK-R-06012022 and #ON-CELL-XEN-06012022) following the guidance of AAALAC. Six- to eight-week-old male SD rats (approximately 200-300 g) obtained from Si Bei Fu Laboratory Animal Technology Co., six- to eight-week-old male CD1 mice (approximately 20-30 g) obtained from Si Bei Fu Laboratory Animal Technology Co., and six- to eight-week-old female BALB/c nude mice (approximately 20-30 g) obtained from Si Bei Fu Laboratory Animal Technology Co., were used in the pharmacokinetic studies. Six- to eight-week-old female BALB/c nude mice (approximately 18-22 g) obtained from Beijing Anikeeper Biotech Co., Ltd were used in the intracranial PDX study. […]\nApproximately 0.03 mL of blood was collected from the dorsal metatarsal vein (in the case of CD1 mice), 0.03 mL of blood from the orbit vein (in the case of BALB/c nude mice) or 0.2 mL of blood from the jugular vein (in the case of SD rats) at each time point. […] Concentrations of test articles in the plasma samples were determined using LC-MS/MS and WinNonlin 8.3 (Phoenix™) was used for pharmacokinetic calculations. […]"}, "[3]": {"test_system": "Salmonella strains (TA98, TA100, TA1537 and TA1535)", "format": "cell-based", "conditions": "bacterial cytotoxicity observed above", "experimental": "Compounds were assessed for mutagenicity at Eurofins Panlabs. in 384-well plates using four Salmonella strains: TA98, to probe for frameshift mutation (with quercetin as control), TA100 and TA1535, to probe for base pair […] (with streptozotocin as control), and TA1537, to probe for frameshift mutations (with aminoacridine as control) as previously described.^21 Each compound was incubated at 37° C. for 96 h at four different concentrations (5, 10, 50, and 100 μM), with each concentration tested using 48 replicates, both with and without rat liver S9 metabolic activation. A concurrent bacterial cytotoxicity assay was ran at 0.6, 1.2, 2.5, 5, 10, 25, 50 and 100 μM to rule out false negatives. Bacterial cytotoxicity was expressed as percent of control growth (OD650). Compounds with growth of less than 60% control were flagged and considered bacterial cytotoxic. […] Significances of the positive counts between the treatment and control were determined using one-tailed Fisher's exact test."}}}
{"smiles": "COc1cc2ncnc(Nc3cccc(Cl)c3F)c2cc1OCCON1CCN(C)CC1", "note": "[Compound 15, N-(3-chloro-2-fluorophenyl)-7-methoxy-6-(2-((4-methylpiperazin-1-yl)oxy)ethoxy)quinazolin-4-amine]", "values": [{"measurement": "stability in hepatocytes", "setting": "[1]", "value": "good stability"}, {"measurement": "IC50 at 5 min", "setting": "CYP3A4", "value": "> 30", "unit": "µM"}, {"measurement": "adverse events or signs of toxicity", "setting": "[2]", "value": "No adverse events or signs of toxicity"}, {"measurement": "concentration up to which negative ames result is valid", "setting": "[3]", "value": "up to 50 uM"}]}
